These results are taken from patent US8901089B2, “Composition comprising an amorphous non-crystalline glass form of roxithromycin” (North-West University, priority 2009, dated 2014).

Holding throughout (type): physicochemical
A short description of data set [1]: Solubility of Form-II and roxithromycin raw material in three media, HPLC assay. The note with it: for solubility at 24 h: 37 °C, thermodynamic from solid. The protocol:
In further analysis of the novel Form-II, five test tubes with 100 mg of Form-II and 10 ml of one of the following solubility mediums respectively, namely, acetate buffer (pH 4.5), phosphate buffer (pH 6.8) and distilled water were filled.
The test tubes are then fixed to a rotating axis (54 rpm) and submerged in a water bath at 37 degrees Celsius±2 degrees Celsius for twenty-four hours. The contents of the test tubes are filtered through a 0.45 μm filter and subsequently the respective filtrates are diluted.
(§1) The concentrations of the five filtrates of Form-II and roxithromycin raw material respectively are determined by HPLC (high performance liquid chromatography) assay. The HPLC assay is performed utilising a mobile phase of 30 g/L ammonium dihydrogen phosphate buffer at pH 5.3. The pH is adjusted with sodium hydroxide solution and 310 ml of the buffer solution is mixed with 690 ml acetonitrile. A Luna C18 150 mm×4.6 mm column is used with a flow rate of 1.0 ml/min and a wavelength of 205 nm. Validation of this method provides a linear regression r^2 of 0.9998.

A short description of data set [2]: Chemical stability by HPLC analysis. Conditions: after solubility test. The protocol: as §1
The nature of data set [3]: Exposure of Form-II to 50 degrees Celsius at zero and 75% relative humidity (microscopy). Conditions: 18 days. An excerpt:
Form-II was further subjected to a temperature of 50 degrees Celsius at respectively zero (FIG. 3) and 75% relative humidity (FIG. 4) for 18 days.

The nature of data set [4]: Vapour sorption experiments (moisture isotherm). The text has this:
The sharp increase is attributed to the condensation of water on the sample holder.

Molecules are shown by their SMILES. ≈ marks a conversion by molar mass, not a printed value.

`CC[C@H]1OC(=O)[C@H](C)[C@@H](O[C@H]2C[C@@](C)(OC)[C@@H](O)[C@H](C)O2)[C@H](C)[C@@H](O[C@@H]2O[C@H](C)C[C@H](N(C)C)[C@H]2O)[C@](C)(O)C[C@@H](C)C(=NOCOCCOC)[C@H](C)[C@@H](O)[C@]1(C)O` [Form-II, 3R,4S,5S,6R,7R,9R,11S,12R,13S,14R-6-[(2S,3R,4S,6R)-4-dimethylamino-3-hydroxy-6-methyloxan-2-yl]oxy-14-ethyl-7,12,13-trihydroxy-4-[(2R,4R,5S,6S)-5-hydroxy-4-methoxy-4,6-dimethyloxan-2-yl]oxy-10-(2-methoxyethoxymethoxyimino)-3,5,7,9,11,13-hexamethyl-1-oxacyclotetradecan-2-one]: the solubility in data set [1] (acetate buffer (pH 4.5), 37 degrees Celsius, twenty-four hours) was determined as 762.71 ± 2.6 µg/mL (≈ 911 µM); in data set [1] (distilled water, 37 degrees Celsius, twenty-four hours), 32.86 ± 3.5 µg/mL (≈ 39.3 µM); in data set [1] (phosphate buffer (pH 6.8), 37 degrees Celsius, twenty-four hours), 134.4 ± 4.9 µg/mL (≈ 161 µM). In addition, the “more soluble than monohydrated roxithromycin (theoretical solubility of 1.8 μg/ml)” value in data set [1] (in water) turned out to be 1798%. For the same compound, the “chemical stability (HPLC analysis)” value in data set [2] was “chemically stable”. In addition, the crystallisation entry in data set [3] (75% relative humidity) and in data set [3] (zero relative humidity) was “no crystallisation” in each case. Besides, the “increase in weight (moisture isotherm)” value in data set [4] (from 70 to 90% RH, attributed to condensation of water on the sample holder) is reported as “up to 4%”; in data set [4] (relative humidity up to 60% RH), “approximately 1.5%”. Moreover, the “weight loss upon decreasing the humidity” value in data set [4] (from 90 to 0% RH, returned to starting weight) turned out to be 4%. Further, in data set [4] (vapour sorption up to 90% RH), the “solid state after high levels of moisture” value is “remained amorphous”.

Consider `CC[C@H]1OC(=O)[C@H](C)[C@@H](O[C@H]2C[C@@](C)(OC)[C@@H](O)[C@H](C)O2)[C@H](C)[C@@H](O[C@@H]2O[C@H](C)C[C@H](N(C)C)[C@H]2O)[C@](C)(O)C[C@@H](C)/C(=N\OCOCCOC)[C@H](C)[C@@H](O)[C@]1(C)O` [roxithromycin raw material, roxithromycin], for which the solubility at 24 h in data set [1] (pH 4.5, aqueous buffer) amounted to 370 ± 8.3 µg/mL (≈ 442 µM); in data set [1] (pH 6.8, aqueous buffer), 74.8 ± 5.1 µg/mL (≈ 89.4 µM); in data set [1] (water), 1.7 ± 0.6 µg/mL (≈ 2.03 µM). Moreover, the solubility in data set [1] (pH 4.5, aqueous buffer) was found to be 370 µg/mL (≈ 442 µM); in data set [1] (pH 6.8, aqueous buffer), 74.8 µg/mL (≈ 89.4 µM); in data set [1] (water) it was 1.8 µg/mL (≈ 2.15 µM).

The term solubility denotes how much of the substance goes into solution per volume. Read a low solubility as a poorly soluble substance.
